According to PubChem BioAssay (NCI):
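Where inhibition never reached the appropriate level, the endpoint shown equals the highest concentration tested. Otherwise, values were interpolated linearly from a five-concentration, 48-hour dose response in 96-well plates. Here, GI50 denotes the concentration required for 50% inhibition of growth. TGI is the concentration that stops growth completely.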

What was measured:
Experiment in all cases: NCI-60 cell line screen, 48 h; in the data active means GI50 below about 0.43 µM; inactive means the rest
786-0 renal = system: 786-0 renal
A498 renal = system: A498 renal
CAKI-1 renal = system: CAKI-1 renal
CCRF-CEM leukemia = system: CCRF-CEM leukemia
COLO 205 colon = system: COLO 205 colon
DLD-1 colon = system: DLD-1 colon
DMS 114 small cell lung = system: DMS 114 small cell lung
DMS 273 small cell lung = system: DMS 273 small cell lung
HCC-2998 colon = system: HCC-2998 colon
HCT-116 colon = system: HCT-116 colon
HL-60(TB) leukemia = system: HL-60(TB) leukemia
HOP-62 NSCLC = system: HOP-62 NSCLC
HOP-92 NSCLC = system: HOP-92 NSCLC
IGROV1 ovarian = system: IGROV1 ovarian
K-562 leukemia = system: K-562 leukemia
LXFL 529 NSCLC = system: LXFL 529 NSCLC
M14 melanoma = system: M14 melanoma
M19-MEL melanoma = system: M19-MEL melanoma
MALME-3M melanoma = system: MALME-3M melanoma
MOLT-4 leukemia = system: MOLT-4 leukemia
NCI-H226 lung = system: NCI-H226 lung
NCI-H23 lung = system: NCI-H23 lung
NCI-H460 lung = system: NCI-H460 lung
NCI-H522 lung = system: NCI-H522 lung
OVCAR-4 ovarian = system: OVCAR-4 ovarian
RPMI-8226 leukemia = system: RPMI-8226 leukemia
RXF-631 renal = system: RXF-631 renal
SF-268 CNS = system: SF-268 CNS
SF-539 CNS = system: SF-539 CNS
SK-MEL-2 melanoma = system: SK-MEL-2 melanoma
SK-MEL-28 melanoma = system: SK-MEL-28 melanoma
SK-OV-3 ovarian = system: SK-OV-3 ovarian
SN12C renal = system: SN12C renal
SNB-75 CNS = system: SNB-75 CNS
SNB-78 CNS = system: SNB-78 CNS
SR leukemia = system: SR leukemia
UACC-62 melanoma = system: UACC-62 melanoma
UO-31 renal = system: UO-31 renal
XF 498 CNS = system: XF 498 CNS
A549 NSCLC = system: A549 NSCLC
ACHN renal = system: ACHN renal
EKVX NSCLC = system: EKVX NSCLC
HCT-15 colon = system: HCT-15 colon
HOP-18 NSCLC = system: HOP-18 NSCLC
KM12 colon = system: KM12 colon
LOX IMVI melanoma = system: LOX IMVI melanoma
OVCAR-5 ovarian = system: OVCAR-5 ovarian
RXF 393 renal = system: RXF 393 renal
SF-295 CNS = system: SF-295 CNS
SNB-19 CNS = system: SNB-19 CNS
SW-620 colon = system: SW-620 colon
TK-10 renal = system: TK-10 renal
UACC-257 melanoma = system: UACC-257 melanoma
HT29 colon = system: HT29 colon
KM20L2 colon = system: KM20L2 colon
OVCAR-3 ovarian = system: OVCAR-3 ovarian
OVCAR-8 ovarian = system: OVCAR-8 ovarian
SK-MEL-5 melanoma = system: SK-MEL-5 melanoma
U251 CNS = system: U251 CNS

CCN(CC)C1CC(n2cc(C)c(=O)[nH]c2=O)OC1CO (stereo unspecified)
> 100 µM: TGI (786-0 renal) | TGI (A498 renal) | TGI (CAKI-1 renal) | TGI (CCRF-CEM leukemia) | TGI (COLO 205 colon) | TGI (DLD-1 colon) | TGI (DMS 114 small cell lung) | TGI (DMS 273 small cell lung) | TGI (HCC-2998 colon) | TGI (HCT-116 colon) | TGI (HL-60(TB) leukemia) | TGI (HOP-62 NSCLC) | TGI (HOP-92 NSCLC) | TGI (IGROV1 ovarian) | TGI (K-562 leukemia) | TGI (LXFL 529 NSCLC) | TGI (M14 melanoma) | TGI (M19-MEL melanoma) | TGI (MALME-3M melanoma) | TGI (MOLT-4 leukemia) | TGI (NCI-H226 lung) | TGI (NCI-H23 lung) | TGI (NCI-H460 lung) | TGI (NCI-H522 lung) | TGI (OVCAR-4 ovarian) | TGI (RPMI-8226 leukemia) | TGI (RXF-631 renal) | TGI (SF-268 CNS) | TGI (SF-539 CNS) | TGI (SK-MEL-2 melanoma) | TGI (SK-MEL-28 melanoma) | TGI (SK-OV-3 ovarian) | TGI (SN12C renal) | TGI (SNB-75 CNS) | TGI (SNB-78 CNS) | TGI (SR leukemia) | TGI (UACC-62 melanoma) | TGI (UO-31 renal) | TGI (XF 498 CNS)

N.N.N.N.N.N.O=N[O-].[Br-].[Co+3].[Co+3].[OH3+].[OH3+]
inactive: GI50 (786-0 renal) > 100 µM | GI50 (A549 NSCLC) > 100 µM | GI50 (ACHN renal) > 100 µM | GI50 (CCRF-CEM leukemia) > 100 µM | GI50 (COLO 205 colon) > 100 µM | GI50 (DLD-1 colon) > 100 µM | GI50 (EKVX NSCLC) 74.3 µM | GI50 (HCC-2998 colon) 58.5 µM | GI50 (HCT-15 colon) > 100 µM | GI50 (HL-60(TB) leukemia) > 100 µM | GI50 (HOP-18 NSCLC) 51.7 µM | GI50 (HOP-92 NSCLC) > 100 µM | GI50 (IGROV1 ovarian) > 100 µM | GI50 (K-562 leukemia) > 100 µM | GI50 (KM12 colon) > 100 µM | GI50 (LOX IMVI melanoma) > 100 µM | GI50 (LXFL 529 NSCLC) > 100 µM | GI50 (M14 melanoma) > 100 µM | GI50 (MALME-3M melanoma) > 100 µM | GI50 (MOLT-4 leukemia) > 100 µM | GI50 (NCI-H226 lung) > 100 µM | GI50 (NCI-H23 lung) > 100 µM | GI50 (OVCAR-5 ovarian) > 100 µM | GI50 (RPMI-8226 leukemia) > 100 µM | GI50 (RXF 393 renal) > 100 µM | GI50 (SF-268 CNS) > 100 µM | GI50 (SF-295 CNS) > 100 µM | GI50 (SF-539 CNS) > 100 µM | GI50 (SK-MEL-2 melanoma) > 100 µM | GI50 (SK-MEL-28 melanoma) > 100 µM | GI50 (SK-OV-3 ovarian) > 100 µM | GI50 (SN12C renal) > 100 µM | GI50 (SNB-19 CNS) > 100 µM | GI50 (SNB-75 CNS) > 100 µM | GI50 (SNB-78 CNS) > 100 µM | GI50 (SR leukemia) > 100 µM | GI50 (SW-620 colon) > 100 µM | GI50 (TK-10 renal) > 100 µM | GI50 (UACC-257 melanoma) > 100 µM | GI50 (UACC-62 melanoma) > 100 µM | GI50 (UO-31 renal) > 100 µM
> 100 µM: TGI (786-0 renal) | TGI (A549 NSCLC) | TGI (ACHN renal) | TGI (CCRF-CEM leukemia) | TGI (COLO 205 colon) | TGI (DLD-1 colon) | TGI (EKVX NSCLC) | TGI (HCC-2998 colon) | TGI (HCT-15 colon) | TGI (HL-60(TB) leukemia) | TGI (HOP-18 NSCLC) | TGI (HOP-92 NSCLC) | TGI (IGROV1 ovarian) | TGI (K-562 leukemia) | TGI (KM12 colon) | TGI (LOX IMVI melanoma) | TGI (LXFL 529 NSCLC) | TGI (M14 melanoma) | TGI (MALME-3M melanoma) | TGI (MOLT-4 leukemia) | TGI (NCI-H226 lung) | TGI (NCI-H23 lung) | TGI (OVCAR-5 ovarian) | TGI (RPMI-8226 leukemia) | TGI (RXF 393 renal) | TGI (SF-268 CNS) | TGI (SF-295 CNS) | TGI (SF-539 CNS) | TGI (SK-MEL-2 melanoma) | TGI (SK-MEL-28 melanoma) | TGI (SK-OV-3 ovarian) | TGI (SN12C renal) | TGI (SNB-19 CNS) | TGI (SNB-75 CNS) | TGI (SNB-78 CNS) | TGI (SR leukemia) | TGI (SW-620 colon) | TGI (TK-10 renal) | TGI (UACC-257 melanoma) | TGI (UACC-62 melanoma) | TGI (UO-31 renal)

O=[N+]([O-])c1nccn1COCCBr
> 100 µM: TGI (786-0 renal) | TGI (A549 NSCLC) | TGI (ACHN renal) | TGI (CAKI-1 renal) | TGI (CCRF-CEM leukemia) | TGI (DLD-1 colon) | TGI (DMS 114 small cell lung) | TGI (EKVX NSCLC) | TGI (HCT-116 colon) | TGI (HCT-15 colon) | TGI (HL-60(TB) leukemia) | TGI (HOP-62 NSCLC) | TGI (HOP-92 NSCLC) | TGI (HT29 colon) | TGI (K-562 leukemia) | TGI (KM12 colon) | TGI (KM20L2 colon) | TGI (LOX IMVI melanoma) | TGI (LXFL 529 NSCLC) | TGI (M14 melanoma) | TGI (M19-MEL melanoma) | TGI (MALME-3M melanoma) | TGI (MOLT-4 leukemia) | TGI (NCI-H226 lung) | TGI (NCI-H23 lung) | TGI (NCI-H460 lung) | TGI (NCI-H522 lung) | TGI (OVCAR-3 ovarian) | TGI (OVCAR-4 ovarian) | TGI (OVCAR-5 ovarian) | TGI (OVCAR-8 ovarian) | TGI (RPMI-8226 leukemia) | TGI (SF-268 CNS) | TGI (SF-295 CNS) | TGI (SF-539 CNS) | TGI (SK-MEL-2 melanoma) | TGI (SK-MEL-28 melanoma) | TGI (SK-MEL-5 melanoma) | TGI (SK-OV-3 ovarian) | TGI (SN12C renal) | TGI (SNB-19 CNS) | TGI (SNB-75 CNS) | TGI (SR leukemia) | TGI (SW-620 colon) | TGI (TK-10 renal) | TGI (U251 CNS) | TGI (UACC-257 melanoma) | TGI (UACC-62 melanoma) | TGI (UO-31 renal) | TGI (XF 498 CNS)
